Test results taken from patent publication US8350027B2, “Dual-acting pyrazole antihypertensive agents” (Theravance, Inc., priority 2009, dated 2013).

Legend:
human AT1 receptor = molecular target: T1, human AT1 receptor (Homo sapiens, UniProt P30556); assay: AT1 radioligand binding assay (displacement of [Eu]AngII); settings: membranes of CHO-K1 cells expressing cloned human AT1 receptor; values given as lower bounds; read-out: AT1 pKi (converted)
T1 construct: expressed in transfected cells; host or cells: CHO-K1
T1 sequence (P30556 1-359): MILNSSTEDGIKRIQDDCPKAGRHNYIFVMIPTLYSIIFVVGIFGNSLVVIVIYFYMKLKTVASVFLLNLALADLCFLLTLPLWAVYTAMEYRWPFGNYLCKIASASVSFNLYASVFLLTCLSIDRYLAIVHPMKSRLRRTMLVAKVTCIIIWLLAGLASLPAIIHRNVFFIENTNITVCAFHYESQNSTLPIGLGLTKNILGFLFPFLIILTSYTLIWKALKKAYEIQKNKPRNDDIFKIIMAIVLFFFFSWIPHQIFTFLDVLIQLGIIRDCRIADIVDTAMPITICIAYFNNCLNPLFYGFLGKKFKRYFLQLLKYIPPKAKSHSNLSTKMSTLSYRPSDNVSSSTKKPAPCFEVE
How it was run: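 Membranes from CHO-K1 cells stably expressing cloned human AT1, 0.2 μg protein, in 50 mM Tris/HCl pH 7.5, 5 mM MgCl2, 0.025% BSA. Compounds displaced [Eu]AngII over 120 min in the dark at room temperature or 37° C; filter-bound TRF read. Nonspecific binding with 10 μM angiotensin II; IC50 converted to Ki via Cheng-Prusoff, reported as pKi.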

NEP enzyme = molecular target: T2, NEP enzyme (Homo sapiens, UniProt P08473); assay: NEP enzyme inhibition assay (fluorogenic peptide substrate); format: biochemical; settings: values given as lower bounds; * = prodrugs, may not exhibit NEP activity in an in vitro assay; read-out: NEP pIC50 (converted)
T2 construct: purchased R&D Systems, Minneapolis, Minn; 1182-ZN
T2 sequence (P08473 52-750 limits assumed): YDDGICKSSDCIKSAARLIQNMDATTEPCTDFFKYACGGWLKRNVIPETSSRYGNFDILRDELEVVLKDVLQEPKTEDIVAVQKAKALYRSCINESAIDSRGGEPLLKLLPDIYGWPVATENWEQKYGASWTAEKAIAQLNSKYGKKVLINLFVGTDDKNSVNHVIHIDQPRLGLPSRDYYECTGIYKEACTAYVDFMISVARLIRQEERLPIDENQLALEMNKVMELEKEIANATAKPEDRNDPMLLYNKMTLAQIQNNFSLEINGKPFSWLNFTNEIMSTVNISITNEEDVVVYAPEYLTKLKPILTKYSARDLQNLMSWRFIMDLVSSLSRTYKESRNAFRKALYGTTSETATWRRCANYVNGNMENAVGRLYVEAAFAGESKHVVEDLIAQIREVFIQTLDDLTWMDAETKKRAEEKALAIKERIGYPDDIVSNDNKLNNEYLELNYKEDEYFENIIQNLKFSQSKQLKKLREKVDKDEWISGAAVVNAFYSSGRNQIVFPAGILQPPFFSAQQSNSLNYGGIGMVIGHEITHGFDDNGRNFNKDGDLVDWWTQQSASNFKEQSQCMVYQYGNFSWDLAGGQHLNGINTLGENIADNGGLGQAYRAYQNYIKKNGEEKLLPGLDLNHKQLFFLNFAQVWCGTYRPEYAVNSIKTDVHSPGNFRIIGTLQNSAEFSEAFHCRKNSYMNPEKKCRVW
How it was run: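 Recombinant human NEP was run with Mca-BK2 (10 μM) at room temperature in Tris buffer with 1 μM Zn. Compounds (10 μM–20 pM, 12 points) were pre-equilibrated 10 min, then reacted 20 min and acid-stopped. Fluorescence ex 320/em 405 nm, one-site competition fit gives pIC50. Thiol compounds may be pre-treated with 400 μM TCEP.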

Compound	Ki (human AT1 receptor) [nM]	IC50 (NEP enzyme) [nM]
CCCc1cc(C(=O)N[C@@H](CS)CC(C)C)nn1Cc1ccc(-c2ccccc2-c2nnn[nH]2)cc1 [Example 3-7, 5-Propyl-1-[2′-(1H-tetrazol-5-yl)biphenyl-4-ylmethyl]-1H-pyrazole-3-carboxylic acid ((R)-1-mercaptomethyl-3-methylbutyl)amide]	≤ 10	≤ 100
CCCc1cc(C(=O)N[C@H](Cc2ccccc2)[C@@H](O)C(=O)O)nn1Cc1ccc(-c2ccccc2S(=O)(=O)NC(=O)CO)cc1 [Example 7-15, (2R,3R)-2-Hydroxy-3-({1-[2′-(2-hydroxyacetylsulfamoyl)biphenyl-4-ylmethyl]-5-propyl-1H-pyrazole-3-carbonyl}amino)-4-phenylbutyric acid]	≤ 10	≤ 100
CCCc1cc(C(=O)N[C@@H](CC(=O)O)Cc2ccccc2Br)nn1Cc1ccc(-c2ccccc2S(=O)(=O)NC(C)=O)cc1 [Example 6-8, (R)-3-{[1-(2′-Acetylsulfamoylbiphenyl-4-ylmethyl)-5-propyl-1H-pyrazole-3-carbonyl]amino}-4-(2-bromophenyl)butyric acid]	≤ 10	≤ 1000
CCCc1cc(C(=O)N[C@H](Cc2ccccc2)[C@@H](O)C(=O)O)nn1Cc1ccc(-c2ccccc2S(=O)(=O)NC(=O)OC)cc1 [Example 5, (2R,3R)-2-hydroxy-3-(1-((2′-(N-(methoxycarbonyl)-sulfamoyl)biphenyl-4-yl)methyl)-5-propyl-1H-pyrazole-3-carboxamido)-4-phenylbutanoic Acid]	≤ 10	≤ 100
CCOc1cc(C(=O)N[C@H](Cc2ccccc2)[C@@H](O)C(=O)O)nn1Cc1ccc(-c2ccccc2S(=O)(=O)NC(C)=O)cc1F [Example 6-4, (2R,3R)-3-{[1-(2′-Acetylsulfamoyl-3-fluorobiphenyl-4-ylmethyl)-5-ethoxy-1H-pyrazole-3-carbonyl]amino}-2-hydroxy-4-phenylbutyric acid]	≤ 10	≤ 100
CCCc1cc(C(=O)N[C@@H](CC(=O)O)Cc2ccccc2Cl)nn1Cc1ccc(-c2ccccc2S(=O)(=O)NC(=O)COC)cc1 [Example 7-18, (R)-4-(2-Chlorophenyl)-3-({1-[2′-(2-methoxyacetylsulfamoyl)biphenyl-4-ylmethyl]-5-propyl-1H-pyrazole-3-carbonyl}amino)butyric acid]	≤ 10	≤ 1000
CCCc1cc(C(=O)N[C@@H](CC(=O)O)Cc2ccccc2C(F)(F)F)nn1Cc1ccc(-c2ccccc2-c2nnn[nH]2)nc1 [Example 11, (R)-3-[(5-Propyl-1-{6-[2-(1H-tetrazol-5-yl)-phenyl]-pyridin-3-ylmethyl}-1H-pyrazole-3-carbonyl)-amino]-4-(2-trifluoromethylphenyl)butyric Acid]	≤ 10	≤ 100
CCOc1cc(C(=O)N[C@@H](CS)CC(C)C)nn1Cc1ccc(-c2ccccc2-c2nnn[nH]2)cc1F [Example 3-38, 5-Ethoxy-1-[3-fluoro-2′-(1H-tetrazol-5-yl)biphenyl-4-ylmethyl]-1H-pyrazole-3-carboxylic acid ((R)-1-mercaptomethyl-3-methylbutyl)amide]	≤ 100	≤ 100
CCCc1cc(C(=O)N[C@H](Cc2ccccc2)[C@@H](O)C(=O)O)nn1Cc1ccc(-c2ccccc2S(=O)(=O)NC(=O)[C@H](C)O)cc1 [Example 7-13, (2R,3R)-2-Hydroxy-3-({1-[2′-((S)-2-hydroxypropionylsulfamoyl)biphenyl-4-ylmethyl]-5-propyl-1H-pyrazole-3-carbonyl}amino)-4-phenylbutyric acid]	≤ 10	≤ 100
CCCc1cc(C(=O)N[C@@H](CC(=O)NO)Cc2ccccc2Cl)nn1Cc1ccc(-c2ccccc2-c2nnn[nH]2)cc1 [Example 3-15, 5-Propyl-1-[2′-(1H-tetrazol-5-yl)-biphenyl-4-ylmethyl]-1H-pyrazole-3-carboxylic acid [(R)-2-(2-chlorophenyl)-1-hydroxycarbamoylmethylethyl]amide]	≤ 10	≤ 100
CCCc1cc(C(=O)N[C@H](Cc2ccccc2)[C@@H](O)C(=O)O)nn1Cc1ccc(-c2ccccc2S(=O)(=O)NC(=O)C(C)C)cc1 [Example 6-12, (2R,3R)-2-Hydroxy-3-{[1-(2′-isobutyrylsulfamoylbiphenyl-4-ylmethyl)-5-propyl-1H-pyrazole-3-carbonyl]amino}-4-phenylbutyric acid]	≤ 10	≤ 1000

The next lines start with the values.

Ki (human AT1 receptor) [nM]	IC50 (NEP enzyme) [nM]	Compound
≤ 10	≤ 1000	CCCc1cc(C(=O)N[C@@H](CC(=O)O)Cc2ccccc2)nn1Cc1cnc(-c2ccccc2S(=O)(=O)NC(C)=O)cn1 [Example 17-4, (R)-3-({1-[5-(2-Acetylsulfamoylphenyl)pyrazin-2-ylmethyl]-5-propyl-1H-pyrazole-3-carbonyl}amino)-4-phenylbutyric acid]
≤ 10	≤ 100	CCCc1cc(C(=O)N[C@@H](CC(=O)O)Cc2ccccc2)nn1Cc1ccc(-c2ccccc2-c2nnn[nH]2)nc1 [Example 14-6, (R)-4-Phenyl-3-[(5-propyl-1-{6-[2-(1H-tetrazol-5-yl)-phenyl]-pyridin-3-ylmethyl}-1H-pyrazole-3-carbonyl)amino]butyric acid]
≤ 100	≤ 100	CCCCc1cc(C(=O)N[C@@H](CS)CC(C)C)nn1Cc1ccc(-c2ccccc2C(=O)O)cc1F [Example 9-3, 4′-[5-Butyl-3-((R)-1-mercaptomethyl-3-methylbutylcarbamoyl)-pyrazol-1-ylmethyl]-3′-fluorobiphenyl-2-carboxylic acid]
≤ 10	≤ 1000	CCCc1cc(C(=O)N[C@H](Cc2ccccc2)[C@@H](O)C(=O)O)nn1Cc1ccc(-c2ccccc2-c2nnn[nH]2)cn1 [Example 15-1, (2R,3R)-2-Hydroxy-4-phenyl-3-[(5-propyl-1-{5-[2-(1H-tetrazol-5-yl)phenyl]pyridin-2-ylmethyl}-1H-pyrazole-3-carbonyl)amino]butyric acid]
≤ 10	≤ 100	CCCc1cc(C(=O)N[C@H](Cc2ccccc2Cl)[C@@H](O)C(=O)O)nn1Cc1ccc(-c2ccccc2-c2nnn[nH]2)nc1 [Example 14-5, (2R,3R)-4-(2-Chlorophenyl)-2-hydroxy-3-[(5-propyl-1-{6-[2-(1H-tetrazol-5-yl)phenyl]pyridin-3-ylmethyl}-1H-pyrazole-3-carbonyl)amino]butyric acid]
≤ 10	≤ 1000	CCCc1cc(C(=O)N[C@H](CC(C)C)[C@@H](O)C(=O)O)nn1Cc1ccc(-c2ccccc2-c2nnn[nH]2)nc1 [Example 14-8, (2R,3R)-2-Hydroxy-5-methyl-3-[(5-propyl-1-{6-[2-(1H-tetrazol-5-yl)phenyl]pyridin-3-ylmethyl}-1H-pyrazole-3-carbonyl)amino]hexanoic acid]
≤ 10	≤ 100	CCCc1cc(C(=O)N[C@@H](CC(=O)O)Cc2ccc(F)cc2)nn1Cc1ccc(-c2ccccc2-c2nnn[nH]2)nc1 [Example 14-13, (R)-4-(4-Fluorophenyl)-3-[(5-propyl-1-{6-[2-(1H-tetrazol-5-yl)phenyl]pyridin-3-ylmethyl}-1H-pyrazole-3-carbonyl)amino]butyric acid]
≤ 100	≤ 100	CCCc1cc(C(=O)N[C@H](Cc2ccccc2Cl)[C@@H](O)C(=O)O)nn1Cc1ccc(-c2ccccc2-n2nn[nH]c2=O)cc1 [Example 16-6, (2R,3R)-4-(2-Chlorophenyl)-2-hydroxy-3-({1-[2′-(5-oxo-4,5-dihydrotetrazol-1-yl)biphenyl-4-ylmethyl]-5-propyl-1H-pyrazole-3-carbonyl}amino)butyric acid]
